In patent publication US5538976A, “Substituted tertiary amino compound or salt thereof” (Yamanouchi Pharmaceutical Co., Ltd., priority 1992, dated 1996):
pEC50, pIC50: −log10 of the molar value.

Tests used:
aromatase [1] = target: T1, aromatase (Rattus norvegicus, UniProt P22443); assay: biochemical
T1 sequence (P22443 1-508): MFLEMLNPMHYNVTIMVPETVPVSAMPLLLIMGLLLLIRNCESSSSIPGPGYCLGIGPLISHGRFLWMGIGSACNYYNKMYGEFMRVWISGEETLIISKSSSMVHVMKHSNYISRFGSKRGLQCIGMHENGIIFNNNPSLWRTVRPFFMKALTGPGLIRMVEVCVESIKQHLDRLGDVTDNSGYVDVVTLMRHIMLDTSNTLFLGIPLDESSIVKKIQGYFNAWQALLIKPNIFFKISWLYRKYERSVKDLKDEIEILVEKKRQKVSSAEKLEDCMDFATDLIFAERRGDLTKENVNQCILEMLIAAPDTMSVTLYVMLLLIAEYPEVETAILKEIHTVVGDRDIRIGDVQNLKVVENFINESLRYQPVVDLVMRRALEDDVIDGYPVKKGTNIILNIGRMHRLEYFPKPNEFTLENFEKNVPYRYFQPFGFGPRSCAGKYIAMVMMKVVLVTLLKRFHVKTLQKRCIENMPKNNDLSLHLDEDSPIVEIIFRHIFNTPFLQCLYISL
Description: IC50 of a test compound in aromatase inhibition was obtained from inhibition of ^3 H2 O released from [1,2-^3 H]-androstenedione in the microsome of a rat ovary.

estradiol biosynthesis = assay: In vivo inhibiting activity on estrogen production in rat (PMSG-primed, ovarian estradiol by RIA); conditions: po, per os, 3 hours after administration, read-out: inhibition on estradiol biosynthesis with respect to the control
Description: (b) In vivo inhibiting activity on estrogen production in rat:
PMSG (pregnant mare serum gonadotropin) (100 IU/rat) was subcutaneously injected to an immature female Wister rat weighing 60 g. After 72 hours from the injection, a suspension of a test compound in 0.5 ml of 20% polyethylene glycol aqueous solution was given to the rat per os. A 20% polyethylene glycol aqueous solution was administered to a control group. After 3 hours from the administration of the drug or placebo, the rat was decapitated and bled out, and the ovary was removed. The estradiol concentration in the ovary was measured by RIA.

[2] = system: dimethylbenzanthracene (DMBA)-induced tumor; assay: Antitumor activity in rat, DMBA-induced breast carcinoma; assay type: in vivo; conditions: orally, daily dose of from 0.04 to 1.0 mg/kg for 2 weeks, rats bearing breast carcinoma
Description: (c) Antitumor activity in rat:
The antitumor activity on breast carcinoma was measured in a dimethylbenzanthracene (DMBA)-induced tumor in a female Sprague-Dawlay rat.
This experimentation is commonly employed as a method for determining an antitumor activity in an animal model of breast carcinoma.

aromatase [3] = target: T2, aromatase (Homo sapiens, UniProt P11511); assay: Inhibiting activity on aromatase of human placenta origin (microsome, 3H2O release from [1,2-3H]androstenedione); assay type: biochemical; conditions: in vitro, read-out: IC50 for in vitro aromatase inhibition
T2 construct: in the microsome of a human placenta; from tissue; host or cells: human placenta microsomes
T2 sequence (P11511 1-503): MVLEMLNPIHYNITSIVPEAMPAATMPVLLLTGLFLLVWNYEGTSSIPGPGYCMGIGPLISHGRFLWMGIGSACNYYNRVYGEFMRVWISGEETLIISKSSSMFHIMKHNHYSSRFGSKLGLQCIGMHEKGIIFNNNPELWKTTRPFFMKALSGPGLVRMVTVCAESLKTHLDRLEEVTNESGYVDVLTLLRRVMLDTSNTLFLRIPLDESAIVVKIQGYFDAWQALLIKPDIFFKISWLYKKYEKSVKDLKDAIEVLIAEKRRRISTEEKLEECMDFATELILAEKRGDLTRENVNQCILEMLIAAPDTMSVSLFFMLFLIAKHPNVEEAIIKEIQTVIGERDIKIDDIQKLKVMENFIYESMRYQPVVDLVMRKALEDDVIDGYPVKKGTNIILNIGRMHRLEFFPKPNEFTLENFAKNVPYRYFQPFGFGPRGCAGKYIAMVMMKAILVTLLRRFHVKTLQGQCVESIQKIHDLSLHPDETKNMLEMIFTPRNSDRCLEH
Text: (a) Inhibiting activity on aromatase of human placenta origin:
Measured in accordance with the method described in Endocrine Research, Vol. 16, No. 2, p. 253 (1990).
The inhibiting activity of a test compound was obtained from inhibition of ^3 H2 O released from [1,2-^3 H]androstenedione in the microsome of a human placenta.
IC50 value for in vitro aromatase inhibition in the microsome of a human placenta was obtained according to the method (2)-(a).

pEC50 (aromatase [1])	pIC50 (aromatase [3])	pIC50 (aromatase [1])	SMILES	inhibition at 0.03 mg/kg (estradiol biosynthesis) [%]	suppression or regression of tumors in the mammary gland [2]
> 7.30			Fc1ccc(N(Cc2ccccc2)Cc2cccnc2)c(F)c1 [Comparative Compound 2, reference compound]		
	10.44	9.66	N#Cc1ccc(N(Cc2cc(F)cc(F)c2)c2cncnc2)cc1 [Example 34, 5-[N-(4-Cyanophenyl)-N-(3,5-difluorobenzyl)amino]pyrimidine]	86	suppression or regression of tumors
